The source made the active and inactive calls.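 Rule for the calls: active = compounds giving half or more protection of infected cells from virus-caused growth loss, again on retest; inactive = the rest.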 Where a SMILES comes first, the peptide text is derived from it. The star is where a group is joined. Cbz = O=C(OCc1ccccc1)*; OSu = O=C1CCC(=O)N1O*
System: CEM cells HIV-1 protection, formazan growth assay
Experiment: NCI AIDS Antiviral Assay
Conditions: for IC50: measured here: growth of uninfected CEM cells
In short: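 Human CEM cells, uninfected and HIV-1-infected, received five drug concentrations, and growth was read by soluble formazan assay. Compounds giving at least 50% protection were retested; reproducible 100% protection defined confirmed active.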

Structure (SMILES) | EC50 [µM] | IC50 [µM] | outcome
CC(=O)Nc1ccccc1NC1CC(C)N(c2ccccc2)N1C(C)=O (stereo unspecified) | > 200 | 32.4 | 
O=c1c(SCc2ccccc2)c(N2CCCCC2)cnn1-c1ccccc1 | > 69.2 | > 69.2 | 
CCN(CC)C1Oc2cc3c(cc2C(c2cc(OC)c(OC)c(OC)c2)C1C)OCO3 (stereo unspecified) | > 100 | 0.537 | 
NCCCCC1NC(=O)C(CO)NC(=O)C(Cc2cnc[nH]2)NC(=O)CNC(=O)C(Cc2c[nH]c3ccccc23)NC(=O)C(Cc2c[nH]c3ccccc23)NC(=O)C(Cc2ccccc2)NC1=O (stereo unspecified) (cyclo(GHSKFWW); configuration not given here) | > 50.1 | > 50.1 | 
C[S+](C)c1ccccc1 | > 1050 | 457 | 
Cc1cc(=O)n2nc(CSc3nnc(N)s3)sc2n1 | > 200 | > 200 | 
CCO[C@@H]1N(C2CC(N=[N+]=[N-])C(CO)O2)C(=O)NC(=O)[C@]1(C)Cl (stereo partly specified) | > 200 | > 200 | 
COC(=O)Cc1cc(=O)n2c([nH]c3ccccc32)c1C#N | > 25.7 | > 25.7 | 
COc1ccc2c3c([nH]c2c1[N+](=O)[O-])C(C)N(C(=O)/C=C/c1ccccc1)CC3 (stereo unspecified) |  |  | inactive
S=C(N/N=C(/c1ccccc1)c1ccccn1)N(Cc1ccccn1)Cc1ccccn1 | > 200 | 0.0631 | 
CC1(C)CCCC2OC2CCC(C)(C)C1=O (stereo unspecified) | > 200 | > 200 | 
CCOC(=O)/C=C/SCCC(=O)OC | > 1150 | 891 | 
CCOC(=O)c1sc(SSc2nc(C)c(C(=O)OCC)s2)nc1C | > 200 | > 200 | 
Cn1c(=O)c2[nH]c(Nc3ccccc3)nc2n(C)c1=O | > 200 | 120 | 
CC1(C)C2CCC1(C)C(O)(c1ccccc1)C2=O (stereo unspecified) | > 91.2 | > 91.2 | 
C=CCOc1ccc(C2(O)c3ccccc3C3=NCCCN32)cc1 (stereo unspecified) | > 200 | 148 | 
O=Nc1ccc(Br)cc1 |  |  | inactive
O=C1NC(=O)C(SSC2C(=O)NC(=O)NC2=O)C(=O)N1 | > 200 | > 200 | 
CN(C)c1ccc(/C=C2\CC(C)(C)c3ccccc3C2=O)cc1 | > 2 | 0.363 | 
O=C(c1ccccc1)[C@H]1Nc2ccc(Cl)cc2[C@H]2OCCC[C@@H]12 | > 11.5 | > 11.5 | 
CCOC(=O)C(Cc1ccccc1)P(=O)(OCC)OCC (stereo unspecified) | > 200 | 158 | 

Structure (SMILES) | EC50 [µM] | IC50 [µM] | outcome
O=C1CCCC/C1=C\c1ccc(Br)cc1 | > 200 | 10.7 | 
Cn1c(=O)c2c(nc3n2CCCC(=O)N3CCCCl)n(C)c1=O | > 100 | > 100 | 
CCN(CC)CP(CN(CC)CC)CN(CC)CC | > 200 | 126 | 
Cc1ccc(Nc2c3c(c(C#N)c4nc5ccccc5n24)CCCC3)cc1 | > 200 | 10.7 | 
O=C1[C@@H]2[C@@H](c3ccccc3)[C@]2(Cl)C(=O)[C@H]2[C@H](c3ccccc3)[C@@]12Cl |  |  | inactive
COc1cc2cc[n+](C)c(Cc3ccc(Oc4cc(Cc5c6cc(OC)c(OC)cc6cc[n+]5C)ccc4OC)cc3)c2cc1OC |  |  | inactive
COc1ccc(/C=C\c2cc(OC)c(OC)c(OC)c2)cc1OCC(=O)O |  |  | inactive
c1ccc2c(c1)n1c(N3CCCC3)[n+]3ccccc3c1c1c3cccc[n+]3c(N3CCCC3)n21 | 57.5 | > 100 | 
CCOC(=O)c1cn(C)c2c1C(=O)C(C(=O)OCC)CCN2C(=O)OCC (stereo unspecified) | > 240 | > 240 | 
O=C(CNc1ccccc1[N+](=O)[O-])Nn1c(-c2ccccc2)nc2ccccc2c1=O | > 200 | 11.7 | 
O=C1C(=O)N(c2ccc(Cl)cc2Cl)C(=O)C(=O)C1c1nc2ccccc2o1 | > 85.1 | > 85.1 | 
CN1CCC(O)(c2ccc(F)cc2)C(C(=O)c2ccc(F)cc2)C1 (stereo unspecified) | > 200 | 72.4 | 
CCC(=O)N(c1ccccc1)C(C)CN1CCC(O)(c2cccc(C(F)(F)F)c2)CC1 (stereo unspecified) | > 200 | 74.1 | 
CC1C=C(CCCCCCCCCCCC[C@@H](O)[C@@H]2CC[C@@H]([C@@H]3CC[C@@H](C(O)CCCCCCCCCCCCC4=C[C@H](C)OC4=O)O3)O2)C(=O)O1 (stereo partly specified) | > 200 | 0.204 | 
O=c1c2ccccc2c2nccn2c2ccccc12 | 182 | > 200 | 
CC(=O)NC1C(O)OC(CO)C(OC2OC(CO)C(O)C(O)C2NC(=O)NCCCCCCNC(=O)n2cc(F)c(=O)[nH]c2=O)C1O (stereo unspecified) |  |  | inactive
CCOC(=O)CCC(NC(=O)CNC(=O)CNC(=O)C(CCC(=O)OCC)NC(=O)C(CCC(=O)OCC)NC(=O)C(CCC(=O)OCC)NC(=O)OCc1ccccc1)C(=O)NC(CCC(=O)OCC)C(=O)NC(CCC(=O)OCC)C(=O)OCC (stereo unspecified) (Cbz-E(OEt)E(OEt)E(OEt)GGE(OEt)E(OEt)E(OEt)-OEt; configuration not given here) | > 200 | > 200 | 
CCC1=CCC23C(=O)C=CC(=O)C2(C1)C(=O)c1cccc(OC)c1C3=O (stereo unspecified) | > 20 | 1.05 | 
CCCO/N=[N+](\[O-])N(CC)CC | > 8910 | > 8910 | 
Nc1ncnc2c1ccn2CC=C(CO)CO | > 200 | > 200 | 
CS1(C)=NC(=O)c2cc([N+](=O)[O-])ccc2N=1 | > 123 | > 123 | 

Structure (SMILES) | EC50 [µM] | IC50 [µM] | outcome
Cc1cccc(N=Nc2c(C)nn(C(=O)CC(=O)Nc3ccc(Cl)cc3)c2C)c1 | > 200 | 123 | 
Cc1ccc(N=C2SC(=NN(C)C)SC2=Nc2ccc(C)cc2)cc1 | > 200 | > 200 | 
NCCCCC(NC(=O)C(N)Cc1ccc(O)cc1)C(=O)NC(Cc1ccc(O)cc1)C(=O)NC(CCCCN)C(=O)ON1C(=O)CCC1=O (stereo unspecified) (H-YKYK-OSu; configuration not given here) | > 200 | > 200 | 
COc1cc(Cl)c2c3c(c(C(=O)c4ccccc4)oc13)CCC2 |  |  | inactive
COc1ccc(OC)c(/C=C(\C#N)c2ccc([N+](=O)[O-])cc2)c1 | > 200 | > 200 | 
NCCN=C(Nc1ccccc1)Nc1ccccc1 | > 200 | 29.5 | 
CCOC(=O)/C(Cl)=C(\C)Nc1nc2c(ccc3ccccc32)s1 | > 100 | 49 | 
CC1(C)C2CCC(CN)(C2)C1N (stereo unspecified) | > 200 | > 200 | 
O=C(O)CNS(=O)(=O)c1ccc(NC(=O)c2cccc([N+](=O)[O-])c2)cc1 |  |  | inactive
CCOC(=O)C1OC1C1CCCc2ccccc21 (stereo unspecified) | > 200 | > 100 | 
NC(=S)N/N=C\CC(O)(C(F)(F)F)C(F)(F)F | > 200 | > 200 | 
COC(=O)C12CCC(C(=O)OC)(CC1)n1c(=O)n(-c3ccccc3)c(=O)n12 | > 200 | > 200 | 
N#Cc1ccc(SSc2ccc(C#N)cc2)cc1 | > 200 | 9.55 | 
Cc1cc(=O)oc2cc(N(C)C)ccc12 | > 67.6 | 37.2 | 
Cn1c[n+](C2OC(CO)C(O)C2O)c2nc([O-])[nH]c(=O)c21 (stereo unspecified) | > 17.4 | 9.77 | 
COc1ccc(-c2nc3c(=O)n(C)c(=O)nc-3n(C)n2)cc1OC | > 20 | 0.447 | 
N#Cc1nc(-c2ccc(-c3nc(C#N)c(N)o3)cc2)oc1N | > 200 | > 200 | 
O=c1[nH]c2cc([N+](=O)[O-])ccc2nc1/C=C(\O)c1ccc(Cl)cc1 | > 100 | 87.1 | 
Clc1ccc(C2=CC(c3ccccc3)N3C(=N[C@H]4CCCC[C@@H]43)N2)cc1 (stereo partly specified) | > 100 | 4.68 | 
BrC1=CC2C(C3C=CC2(Br)C32OCCO2)C12OCCO2 (stereo unspecified) | > 166 | > 166 | 
CN(C)CC(CO)(CN(C)C)CN(C)C | > 200 | > 200 | 

Structure (SMILES) | EC50 [µM] | IC50 [µM] | outcome
CC(C)=Cc1cc(C(=O)NCCNC(=O)c2cc(C=C(C)C)nc(NC#N)n2)nc(NC#N)n1 | > 5.89 | > 5.89 | 
COCOc1ccc(Cn2c(=O)n(C)c(=O)c3c2ncn3C)cc1[N+](=O)[O-] | > 50.1 | > 50.1 | 
CCOc1ccc(N=Nc2ccc3oc(=O)c(/C(C)=N\NC(=O)CC(=O)Nc4ccc(Cl)cc4)cc3c2)cc1 | > 13.2 | > 13.2 | 
Brc1ccc2[nH]cc(/C=N/N3CCCCCC3)c2c1 | > 112 | > 112 | 
O=c1c2ccccc2ncn1O | > 200 | > 200 | 
CC(=O)N1N=C(c2ccccc2Nc2ccccc2C2=NN(C(C)=O)C(c3ccccc3)O2)OC1c1ccccc1 (stereo unspecified) | > 200 | 6.17 | 
COC(=O)C(CC(=O)Nc1ccc(Cl)c(Cl)c1)C(=O)C(=O)Nc1ccc(Cl)c(Cl)c1 (stereo unspecified) | > 52.5 | > 52.5 | 
CC(C)c1cccc(C(C)C)c1NC(=O)C(=O)C1CCC2=C(Sc3ccccc3N2)C1=O (stereo unspecified) | > 204 | 2.24 | 
Cc1ccnc(NS(=O)(=O)c2ccc(N=Nc3c(N)n(C)c(=O)n(C)c3=O)cc2)n1 |  |  | inactive
Oc1ccc([Te]CCNCC[Te]c2ccc(O)cc2)cc1 | > 10 | 5.89 | 
COC1NC(=O)Oc2c(F)cccc21 (stereo unspecified) |  |  | inactive
Cc1nc2ccccc2cc1C[N+]12CN3CN(CN(C3)C1)C2 |  |  | inactive
CN(C)C1C(=O)C(C(=O)NC[N+]23CCO[B-]2(c2ccc(Cl)cc2)OCC3)=C(O)C2(O)C(=O)C3=C(O)c4c(O)cccc4C(C)(O)C3CC12 (stereo unspecified) | > 27.5 | > 27.5 | 
N#CC1=C(N)C(C#N)(C#N)C2(CCCC2)C2CCC=C12 (stereo unspecified) |  |  | inactive
CC#CC(O)(C(=O)OC1CC2CCC(C1)N2C)C1CCCC1 (stereo unspecified) | > 200 | > 200 | 
c1ccc(-c2cc(-c3ccccc3)nc(-c3ccncc3)c2)cc1 | > 200 | > 200 | 
CN(C)Cc1cc(C=O)cc(CN(C)C)c1O | > 200 | > 200 | 
Cc1ccc(NC(=O)CC(=O)n2nc(C)c(N=Nc3cccc(C)c3)c2C)cc1 | > 200 | > 200 | 
O=C(CCCCCCCCC(=O)NN1C(=O)/C(=C\c2ccc(O)c(O)c2)SC1c1c(O)ccc2ccccc12)NN1C(=O)C(=Cc2ccc(O)c(O)c2)SC1c1c(O)ccc2ccccc12 (stereo unspecified) | > 200 | 1 | 
O=C1CN(CCCN2CCOCC2)CC(=O)N2CCCCN12 | > 200 | > 200 | 
Oc1cc(O)c2c(c1)O[C@@H](c1ccc(O)c(O)c1)[C@H](O)C2 | > 200 | > 200 | 
